From patent US11746139B2, “IL-7Rαγc binding compounds” (MEDIKINE, INC., priority 2020, dated 2023)

Target: T1, Rγc subunit (Homo sapiens, UniProt P31785)
T1 construct: purchased ACRObiosystems, Inc. ILG-H5256
Assay: Alanine scan competition binding assay, binding to Rγc subunit
Settings: alanine scan peptides

T1 sequence (P31785 23-254): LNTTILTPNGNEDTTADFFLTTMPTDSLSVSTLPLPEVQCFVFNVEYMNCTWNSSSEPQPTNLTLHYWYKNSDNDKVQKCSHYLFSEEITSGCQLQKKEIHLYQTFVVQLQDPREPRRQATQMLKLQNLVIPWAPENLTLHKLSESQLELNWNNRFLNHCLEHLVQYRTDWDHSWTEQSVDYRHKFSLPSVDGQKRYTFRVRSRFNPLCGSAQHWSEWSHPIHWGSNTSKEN

Structure (SMILES)	IC50 [nM]
CC(C)C[C@@H]1NC(=O)[C@H](CCC(=O)O)NC(=O)[C@H](C(C)C)NC(=O)CNC(=O)[C@H](CCC(=O)O)NC(=O)[C@H](Cc2c[nH]c3ccccc23)NC(=O)[C@H](CC(=O)O)NC(=O)[C@H](CCC(N)=O)NC(=O)[C@@H](NC(=O)[C@@H](NC(=O)[C@@H](NC(=O)CNC(=O)CN)C(C)C)C(C)C)CSSC[C@@H](C(=O)N[C@@H](Cc2c[nH]c3ccccc23)C(=O)N[C@@H](CCC(N)=O)C(=O)NCC(=O)NCC(=O)O)NC1=O [SEQ ID NO: 1031, G G V V C Q D W E G V E L C W Q G G]	< 50
CC(C)C[C@@H]1NC(=O)[C@H](CCC(=O)O)NC(=O)[C@H](C(C)C)NC(=O)CNC(=O)[C@H](CCC(=O)O)NC(=O)[C@H](Cc2c[nH]c3ccccc23)NC(=O)[C@H](CC(=O)O)NC(=O)[C@H](C)NC(=O)[C@@H](NC(=O)[C@@H](NC(=O)[C@@H](NC(=O)CNC(=O)CN)C(C)C)C(C)C)CSSC[C@@H](C(=O)N[C@@H](Cc2c[nH]c3ccccc23)C(=O)N[C@@H](CCC(N)=O)C(=O)NCC(=O)NCC(=O)O)NC1=O [SEQ ID NO: 1032, G G V V C A D W E G V E L C W Q G G]	< 100
CC(C)C[C@@H]1NC(=O)[C@H](CCC(=O)O)NC(=O)[C@H](C(C)C)NC(=O)CNC(=O)[C@H](CCC(=O)O)NC(=O)[C@H](Cc2c[nH]c3ccccc23)NC(=O)[C@H](C)NC(=O)[C@H](CCC(N)=O)NC(=O)[C@@H](NC(=O)[C@@H](NC(=O)[C@@H](NC(=O)CNC(=O)CN)C(C)C)C(C)C)CSSC[C@@H](C(=O)N[C@@H](Cc2c[nH]c3ccccc23)C(=O)N[C@@H](CCC(N)=O)C(=O)NCC(=O)NCC(=O)O)NC1=O [SEQ ID NO: 1033, G G V V C Q A W E G V E L C W Q G G]	< 50
CC(C)C[C@@H]1NC(=O)[C@H](CCC(=O)O)NC(=O)[C@H](C(C)C)NC(=O)CNC(=O)[C@H](CCC(=O)O)NC(=O)[C@H](C)NC(=O)[C@H](CC(=O)O)NC(=O)[C@H](CCC(N)=O)NC(=O)[C@@H](NC(=O)[C@@H](NC(=O)[C@@H](NC(=O)CNC(=O)CN)C(C)C)C(C)C)CSSC[C@@H](C(=O)N[C@@H](Cc2c[nH]c3ccccc23)C(=O)N[C@@H](CCC(N)=O)C(=O)NCC(=O)NCC(=O)O)NC1=O [SEQ ID NO: 1034, G G V V C Q D A E G V E L C W Q G G]	< 2000
CC(C)C[C@@H]1NC(=O)[C@H](CCC(=O)O)NC(=O)[C@H](C(C)C)NC(=O)CNC(=O)[C@H](C)NC(=O)[C@H](Cc2c[nH]c3ccccc23)NC(=O)[C@H](CC(=O)O)NC(=O)[C@H](CCC(N)=O)NC(=O)[C@@H](NC(=O)[C@@H](NC(=O)[C@@H](NC(=O)CNC(=O)CN)C(C)C)C(C)C)CSSC[C@@H](C(=O)N[C@@H](Cc2c[nH]c3ccccc23)C(=O)N[C@@H](CCC(N)=O)C(=O)NCC(=O)NCC(=O)O)NC1=O [SEQ ID NO: 1035, G G V V C Q D W A G V E L C W Q G G]	< 50
CC(C)C[C@@H]1NC(=O)[C@H](CCC(=O)O)NC(=O)[C@H](C(C)C)NC(=O)[C@H](C)NC(=O)[C@H](CCC(=O)O)NC(=O)[C@H](Cc2c[nH]c3ccccc23)NC(=O)[C@H](CC(=O)O)NC(=O)[C@H](CCC(N)=O)NC(=O)[C@@H](NC(=O)[C@@H](NC(=O)[C@@H](NC(=O)CNC(=O)CN)C(C)C)C(C)C)CSSC[C@@H](C(=O)N[C@@H](Cc2c[nH]c3ccccc23)C(=O)N[C@@H](CCC(N)=O)C(=O)NCC(=O)NCC(=O)O)NC1=O [SEQ ID NO: 1036, G G V V C Q D W E A V E L C W Q G G]	< 100

Target: IL-7Rα (Homo sapiens, UniProt P16871)
Assay: Competition binding ELISA with bn407::NA-HRP precomplex
Settings: bn407:NA-HRP 10 nM final; read-out: Competitive Binding ELISA bn407:NA-HRP (10 nMf) IC50 M

Chain of IL-7Rα (P16871 21-236): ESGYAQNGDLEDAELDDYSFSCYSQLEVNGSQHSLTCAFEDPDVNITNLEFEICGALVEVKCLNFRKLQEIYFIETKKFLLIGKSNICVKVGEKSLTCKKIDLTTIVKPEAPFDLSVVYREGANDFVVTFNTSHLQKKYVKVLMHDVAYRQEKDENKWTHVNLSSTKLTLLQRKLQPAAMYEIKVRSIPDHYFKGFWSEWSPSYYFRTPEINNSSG

Structure (SMILES)	IC50 [nM]
CC[C@H](C)[C@H](N)C(=O)N1CCC[C@H]1C(=O)N[C@@H](Cc1c[nH]c2ccccc12)C(=O)N[C@H]1CSSC[C@@H](C(=O)N[C@@H](C)C(=O)N[C@@H](Cc2c[nH]c3ccccc23)C(=O)N[C@@H](CC(C)C)C(=O)N[C@@H](CCCCN)C(=O)N[C@@H](CCC(N)=O)C(=O)N[C@@H](CCSC)C(=O)NCC(=O)NCC(=O)O)NC(=O)[C@H](CCC(N)=O)NC(=O)[C@H](CC(C)C)NC(=O)CNC(=O)CNC(=O)[C@@H]2CCCN2C(=O)[C@H](CC(=O)O)NC(=O)[C@H](CC(C)C)NC(=O)[C@H]([C@@H](C)O)NC1=O [SEQ ID NO: 429, I P W C T L D P G G L Q C A W L K Q M]	466
CC[C@H](C)[C@H](N)C(=O)N1CCC[C@H]1C(=O)N[C@@H](Cc1c[nH]c2ccccc12)C(=O)N[C@H]1CSSC[C@@H](C(=O)N[C@@H](C)C(=O)N[C@@H](Cc2c[nH]c3ccccc23)C(=O)N[C@@H](CC(C)C)C(=O)N[C@@H](Cc2c[nH]cn2)C(=O)N[C@@H](CCC(N)=O)C(=O)N[C@@H](CCSC)C(=O)NCC(=O)NCC(=O)O)NC(=O)[C@H](CCC(N)=O)NC(=O)[C@H](CC(C)C)NC(=O)CNC(=O)CNC(=O)[C@@H]2CCCN2C(=O)[C@H](CC(=O)O)NC(=O)[C@H](CC(C)C)NC(=O)[C@H]([C@@H](C)O)NC1=O [SEQ ID NO: 430, I P W C T L D P G G L Q C A W H K Q M]	682
CC[C@H](C)[C@H](N)C(=O)N1CCC[C@H]1C(=O)N[C@@H](Cc1c[nH]c2ccccc12)C(=O)N[C@H]1CSSC[C@@H](C(=O)N[C@@H](C)C(=O)N[C@@H](Cc2c[nH]c3ccccc23)C(=O)N[C@@H](CC(C)C)C(=O)N[C@@H](CCCNC(=N)N)C(=O)N[C@@H](C)C(=O)N[C@@H](CCSC)C(=O)NCC(=O)NCC(=O)O)NC(=O)[C@H](CCC(N)=O)NC(=O)[C@H](CC(C)C)NC(=O)CNC(=O)CNC(=O)[C@@H]2CCCN2C(=O)[C@H](CC(=O)O)NC(=O)[C@H](CC(C)C)NC(=O)[C@H]([C@@H](C)O)NC1=O [SEQ ID NO: 431, I P W C T L D P G G L Q C A W L R A M]	521
CC[C@H](C)[C@H](N)C(=O)N1CCC[C@H]1C(=O)N[C@@H](Cc1c[nH]c2ccccc12)C(=O)N[C@H]1CSSC[C@@H](C(=O)N[C@@H](C)C(=O)N[C@@H](Cc2c[nH]c3ccccc23)C(=O)N[C@@H](CC(C)C)C(=O)N[C@@H](CCCNC(=N)N)C(=O)N[C@@H](CCC(N)=O)C(=O)N[C@@H](C)C(=O)NCC(=O)NCC(=O)O)NC(=O)[C@H](CCC(N)=O)NC(=O)[C@H](CC(C)C)NC(=O)CNC(=O)CNC(=O)[C@@H]2CCCN2C(=O)[C@H](CC(=O)O)NC(=O)[C@H](CC(C)C)NC(=O)[C@H]([C@@H](C)O)NC1=O [SEQ ID NO: 432, I P W C T L D P G G L Q C A W L R Q A]	942
CC[C@H](C)[C@H](N)C(=O)N1CCC[C@H]1C(=O)N[C@@H](Cc1c[nH]c2ccccc12)C(=O)N[C@H]1CSSC[C@@H](C(=O)N[C@@H](C)C(=O)N[C@@H](Cc2c[nH]c3ccccc23)C(=O)N[C@@H](CC(C)C)C(=O)N[C@@H](CCCNC(=N)N)C(=O)N[C@@H](C)C(=O)N[C@@H](C)C(=O)NCC(=O)NCC(=O)O)NC(=O)[C@H](CCC(N)=O)NC(=O)[C@H](CC(C)C)NC(=O)CNC(=O)CNC(=O)[C@@H]2CCCN2C(=O)[C@H](CC(=O)O)NC(=O)[C@H](CC(C)C)NC(=O)[C@H]([C@@H](C)O)NC1=O [SEQ ID NO: 433, I P W C T L D P G G L Q C A W L R A A]	1070
CC[C@H](C)[C@H](N)C(=O)N1CCC[C@H]1C(=O)N[C@@H](Cc1c[nH]c2ccccc12)C(=O)N[C@H]1CSSC[C@@H](C(=O)N[C@@H](C)C(=O)N[C@@H](Cc2c[nH]c3ccccc23)C(=O)N[C@@H](CC(C)C)C(=O)N[C@@H](C)C(=O)N[C@@H](C)C(=O)N[C@@H](C)C(=O)NCC(=O)NCC(=O)O)NC(=O)[C@H](CCC(N)=O)NC(=O)[C@H](CC(C)C)NC(=O)CNC(=O)CNC(=O)[C@@H]2CCCN2C(=O)[C@H](CC(=O)O)NC(=O)[C@H](CC(C)C)NC(=O)[C@H]([C@@H](C)O)NC1=O [SEQ ID NO: 434, I P W C T L D P G G L Q C A W L A A A]	602
